Test results reported in ChEMBL document CHEMBL4014348, “Design, Multicomponent Synthesis, and Anticancer Activity of a Focused Histone Deacetylase (HDAC) Inhibitor Library with Peptoid-Based Cap Groups” (J Med Chem, 2017).
Several values for one entry are separate records, joined by “and”; a condition that tells them apart may be missing. Equal values may be shown once. Activity calls are given as the source filed them. No cut-off for these calls is given here.

How the values were obtained:
[1] = biological target: T1, Histone deacetylase 1/2/3/6 (Homo sapiens, UniProt Q13547+O15379+Q9UBN7+Q92769); experiment: Inhibition of HDAC1/2/3/6 in human A2780 cells using Boc-Lys(epsilon-Ac)-AMC as substrate preincubated for 18 hrs followed by substrate addition measured after 3 hrs by fluorescence assay; type: cell-based
T1 sequence (O15379 whole entry, looked up, one chain of several): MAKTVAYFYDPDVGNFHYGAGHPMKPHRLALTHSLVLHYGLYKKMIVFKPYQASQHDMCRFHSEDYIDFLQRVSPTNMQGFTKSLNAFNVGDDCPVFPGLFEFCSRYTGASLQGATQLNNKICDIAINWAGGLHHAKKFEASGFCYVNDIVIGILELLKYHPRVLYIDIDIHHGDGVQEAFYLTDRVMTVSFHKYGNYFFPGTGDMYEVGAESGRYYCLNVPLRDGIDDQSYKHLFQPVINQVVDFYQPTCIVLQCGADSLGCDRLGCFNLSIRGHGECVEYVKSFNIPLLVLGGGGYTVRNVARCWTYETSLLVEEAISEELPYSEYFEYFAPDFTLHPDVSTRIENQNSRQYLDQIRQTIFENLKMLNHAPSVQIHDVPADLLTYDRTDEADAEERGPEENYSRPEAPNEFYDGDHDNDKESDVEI
T1 sequence (Q13547 whole entry, looked up, one chain of several): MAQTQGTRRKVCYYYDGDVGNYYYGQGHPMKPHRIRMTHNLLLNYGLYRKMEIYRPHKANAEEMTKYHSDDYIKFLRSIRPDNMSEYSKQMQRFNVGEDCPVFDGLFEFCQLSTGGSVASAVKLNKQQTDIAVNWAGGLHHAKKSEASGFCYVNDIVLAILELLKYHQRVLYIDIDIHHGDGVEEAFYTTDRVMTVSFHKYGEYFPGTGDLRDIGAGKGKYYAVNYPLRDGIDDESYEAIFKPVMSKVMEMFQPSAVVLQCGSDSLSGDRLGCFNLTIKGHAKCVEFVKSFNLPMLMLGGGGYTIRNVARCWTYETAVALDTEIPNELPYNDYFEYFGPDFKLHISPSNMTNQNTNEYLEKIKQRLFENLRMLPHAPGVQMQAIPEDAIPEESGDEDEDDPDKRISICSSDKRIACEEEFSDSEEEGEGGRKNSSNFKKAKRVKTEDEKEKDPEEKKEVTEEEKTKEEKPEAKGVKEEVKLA
T1 sequence (Q92769 whole entry, looked up, one chain of several): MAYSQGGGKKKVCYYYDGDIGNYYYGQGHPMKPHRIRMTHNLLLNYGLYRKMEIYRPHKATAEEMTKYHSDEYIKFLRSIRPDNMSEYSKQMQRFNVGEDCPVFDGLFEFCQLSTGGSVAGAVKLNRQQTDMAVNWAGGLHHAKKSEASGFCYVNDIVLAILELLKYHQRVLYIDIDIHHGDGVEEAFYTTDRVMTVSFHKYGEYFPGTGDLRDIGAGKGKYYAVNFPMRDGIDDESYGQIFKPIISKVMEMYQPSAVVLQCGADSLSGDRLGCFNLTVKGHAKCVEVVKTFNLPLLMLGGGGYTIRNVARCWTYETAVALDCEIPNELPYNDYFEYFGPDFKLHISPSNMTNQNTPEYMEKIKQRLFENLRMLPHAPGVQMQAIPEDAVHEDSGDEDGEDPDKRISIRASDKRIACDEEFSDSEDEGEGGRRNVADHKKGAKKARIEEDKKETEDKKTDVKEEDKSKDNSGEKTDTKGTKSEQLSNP

[2] = biological target: T1, Histone deacetylase 1/2/3/6; experiment: Inhibition of HDAC1/2/3/6 in human A2780cisR cells using Boc-Lys(epsilon-Ac)-AMC as substrate preincubated for 18 hrs followed by substrate addition measured after 3 hrs by fluorescence assay; type: cell-based
[3] = biological target: T1, Histone deacetylase 1/2/3/6; experiment: Inhibition of HDAC1/2/3/6 in human Cal27 cells using Boc-Lys(epsilon-Ac)-AMC as substrate preincubated for 18 hrs followed by substrate addition measured after 3 hrs by fluorescence assay; type: cell-based
A2780cisR = experiment: Cytotoxicity against human A2780cisR cells assessed as cell survival after 72 hrs by MTT assay; type: functional, cell-based
A2780 = experiment: Cytotoxicity against human A2780 cells assessed as cell survival after 72 hrs by MTT assay; type: functional, cell-based; settings: A2780, 72 h
CAL-27 [4] = experiment: Cytotoxicity against human CAL27 cells assessed as cell survival after 72 hrs by MTT assay; type: functional, cell-based; settings: CAL-27, 72 h
Histone deacetylase 1 = Histone deacetylase 1 (Homo sapiens, UniProt Q13547); experiment: Inhibition of C-terminal FLAG/His-tagged recombinant human HDAC1 expressed in baculovirus infected Sf9 insect cells using Z-(Ac)Lys-AMC as substrate measured after 90 mins by fluorescence assay
Sequence of Histone deacetylase 1 (Q13547 whole entry): as the sequence (Q13547 whole entry, looked up, one chain of several) above

[5] = biological target: T2, Protein deacetylase HDAC6 (Homo sapiens, UniProt Q9UBN7); experiment: Inhibition of N-terminal GST-tagged recombinant human HDAC6 expressed in baculovirus infected Sf9 insect cells using Z-(Ac)Lys-AMC as substrate measured after 90 mins by fluorescence assay
T2 sequence (Q9UBN7 whole entry): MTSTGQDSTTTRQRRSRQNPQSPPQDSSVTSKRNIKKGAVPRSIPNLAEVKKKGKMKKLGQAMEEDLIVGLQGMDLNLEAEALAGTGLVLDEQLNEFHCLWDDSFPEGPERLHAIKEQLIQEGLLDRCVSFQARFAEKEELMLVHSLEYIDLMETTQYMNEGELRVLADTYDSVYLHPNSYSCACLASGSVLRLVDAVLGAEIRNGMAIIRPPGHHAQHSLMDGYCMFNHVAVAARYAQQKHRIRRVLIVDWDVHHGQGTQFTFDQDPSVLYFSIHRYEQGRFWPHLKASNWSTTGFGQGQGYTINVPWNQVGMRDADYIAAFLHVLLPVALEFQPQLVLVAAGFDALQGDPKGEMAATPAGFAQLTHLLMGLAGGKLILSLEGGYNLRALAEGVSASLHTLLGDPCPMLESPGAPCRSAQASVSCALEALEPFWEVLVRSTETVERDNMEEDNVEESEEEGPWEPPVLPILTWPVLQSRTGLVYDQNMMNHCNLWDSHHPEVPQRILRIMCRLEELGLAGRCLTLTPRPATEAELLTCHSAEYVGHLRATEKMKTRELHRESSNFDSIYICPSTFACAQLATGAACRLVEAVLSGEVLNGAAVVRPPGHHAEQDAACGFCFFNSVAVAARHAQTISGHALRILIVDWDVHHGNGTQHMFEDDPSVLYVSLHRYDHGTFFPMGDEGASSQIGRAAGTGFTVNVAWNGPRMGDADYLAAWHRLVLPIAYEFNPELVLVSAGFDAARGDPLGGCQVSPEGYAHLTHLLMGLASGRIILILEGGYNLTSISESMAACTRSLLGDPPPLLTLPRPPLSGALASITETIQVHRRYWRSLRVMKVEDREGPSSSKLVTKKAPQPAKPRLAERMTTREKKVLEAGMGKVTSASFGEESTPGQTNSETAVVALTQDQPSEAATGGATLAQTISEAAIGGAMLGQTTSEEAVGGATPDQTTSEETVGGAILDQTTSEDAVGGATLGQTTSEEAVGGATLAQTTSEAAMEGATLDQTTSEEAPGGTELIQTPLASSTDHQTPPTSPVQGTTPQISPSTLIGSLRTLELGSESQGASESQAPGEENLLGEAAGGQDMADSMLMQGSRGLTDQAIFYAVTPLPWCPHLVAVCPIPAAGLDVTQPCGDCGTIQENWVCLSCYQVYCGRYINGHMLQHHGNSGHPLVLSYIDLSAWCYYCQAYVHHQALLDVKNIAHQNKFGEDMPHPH

[6] = biological target: Histone deacetylase 3/Nuclear receptor corepressor 2 (HDAC3/NCoR2) (Homo sapiens, UniProt O15379); experiment: Inhibition of full length human recombinant C-terminal His-tagged HDAC3/NcoR2 expressed in baculovirus infected Sf9 insect cells using Boc-Lys(epsilon-Ac)-AMC as substrate measured after 90 mins by fluorescence assay
Sequence of Histone deacetylase 3/Nuclear receptor corepressor 2 (HDAC3/NCoR2) (O15379 whole entry): as the sequence (O15379 whole entry, looked up, one chain of several) above
Sequence of Histone deacetylase 3/Nuclear receptor corepressor 2 (HDAC3/NCoR2) (Q9Y618 whole entry, further chain): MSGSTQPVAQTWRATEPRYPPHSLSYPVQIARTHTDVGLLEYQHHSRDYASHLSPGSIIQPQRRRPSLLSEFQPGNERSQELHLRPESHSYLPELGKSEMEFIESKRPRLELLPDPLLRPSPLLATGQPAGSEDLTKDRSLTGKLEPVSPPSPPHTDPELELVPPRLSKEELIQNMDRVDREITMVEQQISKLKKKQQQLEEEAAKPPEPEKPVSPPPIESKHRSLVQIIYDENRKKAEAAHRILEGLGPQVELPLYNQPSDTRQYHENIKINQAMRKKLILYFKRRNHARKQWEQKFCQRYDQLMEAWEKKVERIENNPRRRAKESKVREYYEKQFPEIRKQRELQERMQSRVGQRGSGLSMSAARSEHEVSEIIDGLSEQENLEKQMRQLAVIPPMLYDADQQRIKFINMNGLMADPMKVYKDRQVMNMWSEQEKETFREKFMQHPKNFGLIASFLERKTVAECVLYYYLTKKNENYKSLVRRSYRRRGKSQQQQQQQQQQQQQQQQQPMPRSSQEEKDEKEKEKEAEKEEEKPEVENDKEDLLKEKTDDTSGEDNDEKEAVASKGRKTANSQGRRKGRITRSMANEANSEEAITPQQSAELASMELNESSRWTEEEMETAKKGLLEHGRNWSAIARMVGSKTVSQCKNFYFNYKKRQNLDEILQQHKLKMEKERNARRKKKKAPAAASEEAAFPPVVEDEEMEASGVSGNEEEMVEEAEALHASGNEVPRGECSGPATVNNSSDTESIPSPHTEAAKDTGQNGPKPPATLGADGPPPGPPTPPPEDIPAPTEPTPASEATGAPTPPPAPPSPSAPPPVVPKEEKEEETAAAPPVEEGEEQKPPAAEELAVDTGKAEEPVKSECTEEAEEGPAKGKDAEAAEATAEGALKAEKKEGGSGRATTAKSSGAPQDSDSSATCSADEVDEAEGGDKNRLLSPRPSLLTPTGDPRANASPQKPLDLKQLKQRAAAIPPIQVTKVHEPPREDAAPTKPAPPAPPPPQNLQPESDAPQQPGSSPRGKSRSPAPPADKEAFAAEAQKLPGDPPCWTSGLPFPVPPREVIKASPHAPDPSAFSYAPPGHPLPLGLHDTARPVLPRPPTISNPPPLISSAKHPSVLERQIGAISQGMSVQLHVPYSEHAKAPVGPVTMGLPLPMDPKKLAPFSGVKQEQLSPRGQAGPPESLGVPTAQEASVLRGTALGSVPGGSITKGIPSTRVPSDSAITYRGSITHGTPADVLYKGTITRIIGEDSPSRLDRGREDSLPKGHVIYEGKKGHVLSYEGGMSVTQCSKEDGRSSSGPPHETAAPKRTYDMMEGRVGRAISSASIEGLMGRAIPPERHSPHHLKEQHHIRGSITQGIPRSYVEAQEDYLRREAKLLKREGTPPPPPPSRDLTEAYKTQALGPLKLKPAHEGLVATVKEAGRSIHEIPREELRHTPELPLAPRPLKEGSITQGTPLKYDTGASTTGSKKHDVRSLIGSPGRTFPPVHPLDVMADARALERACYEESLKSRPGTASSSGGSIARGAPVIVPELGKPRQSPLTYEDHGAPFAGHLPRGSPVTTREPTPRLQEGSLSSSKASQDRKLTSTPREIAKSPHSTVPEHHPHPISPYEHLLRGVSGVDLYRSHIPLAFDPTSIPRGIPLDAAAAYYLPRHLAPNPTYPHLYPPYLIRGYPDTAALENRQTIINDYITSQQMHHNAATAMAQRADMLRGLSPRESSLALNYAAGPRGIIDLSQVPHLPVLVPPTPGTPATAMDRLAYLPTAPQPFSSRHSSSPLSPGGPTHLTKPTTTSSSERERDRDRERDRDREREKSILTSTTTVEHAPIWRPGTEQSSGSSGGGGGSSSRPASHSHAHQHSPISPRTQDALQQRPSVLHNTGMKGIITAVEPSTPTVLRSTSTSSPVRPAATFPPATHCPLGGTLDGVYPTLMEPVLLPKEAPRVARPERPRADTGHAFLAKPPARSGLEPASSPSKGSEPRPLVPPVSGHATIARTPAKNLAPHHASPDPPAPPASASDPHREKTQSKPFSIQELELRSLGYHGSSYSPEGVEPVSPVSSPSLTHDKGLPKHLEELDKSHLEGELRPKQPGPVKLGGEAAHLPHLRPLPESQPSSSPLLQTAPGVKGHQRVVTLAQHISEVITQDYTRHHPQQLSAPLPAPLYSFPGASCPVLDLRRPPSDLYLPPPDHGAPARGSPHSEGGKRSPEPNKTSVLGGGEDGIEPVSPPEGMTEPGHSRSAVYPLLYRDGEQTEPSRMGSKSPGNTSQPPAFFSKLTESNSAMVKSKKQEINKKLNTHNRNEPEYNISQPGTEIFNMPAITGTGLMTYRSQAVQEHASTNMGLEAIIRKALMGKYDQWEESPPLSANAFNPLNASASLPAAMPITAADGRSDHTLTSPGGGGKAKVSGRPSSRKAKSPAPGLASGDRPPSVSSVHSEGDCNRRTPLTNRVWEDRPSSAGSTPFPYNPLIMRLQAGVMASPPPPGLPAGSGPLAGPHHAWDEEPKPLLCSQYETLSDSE

Histone deacetylase 2 = Histone deacetylase 2 (Homo sapiens, UniProt Q92769); experiment: Inhibition of full length human recombinant C-terminal FLAG-tagged HDAC2 expressed in baculovirus infected Sf9 insect cells using Boc-Lys(epsilon-Ac)-AMC as substrate measured after 90 mins by fluorescence assay; type: cell-based
Sequence of Histone deacetylase 2 (Q92769 whole entry): as the sequence (Q92769 whole entry, looked up, one chain of several) above

Histone deacetylase 8 = biological target: T3, Histone deacetylase 8 (Homo sapiens, UniProt Q9BY41); experiment: Inhibition of human recombinant HDAC8 expressed in Escherichia coli using Z-L-Lys(epsilon-trifluoroacetyl)-AMC as substrate measured after 90 mins by fluorescence assay
T3 sequence (Q9BY41 whole entry): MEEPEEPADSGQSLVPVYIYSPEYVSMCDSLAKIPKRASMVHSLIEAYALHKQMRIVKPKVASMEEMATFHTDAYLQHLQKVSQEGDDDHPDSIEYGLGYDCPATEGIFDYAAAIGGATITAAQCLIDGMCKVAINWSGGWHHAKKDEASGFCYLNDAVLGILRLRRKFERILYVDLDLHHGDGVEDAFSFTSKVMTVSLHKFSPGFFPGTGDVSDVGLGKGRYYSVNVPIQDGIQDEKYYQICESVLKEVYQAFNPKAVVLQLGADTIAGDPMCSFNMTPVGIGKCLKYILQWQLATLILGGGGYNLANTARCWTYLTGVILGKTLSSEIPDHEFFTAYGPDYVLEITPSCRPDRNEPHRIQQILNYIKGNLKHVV

[7] = Apparent permeability in human Caco2 cells; type: ADME, cell-based, Caco-2; settings: caco-2
[8] = Apparent permeability in MDCK cells; type: ADME, cell-based, Canis lupus familiaris; settings: dog
[9] = biological target: T1, Histone deacetylase 1/2/3/6; experiment: Inhibition of HDAC1/2/3/6 in human Cal27 cells assessed as potentiation of cisplatin-induced apoptosis at 250 to 500 nM preincubated for 48 hrs followed by cisplatin addition by flow cytomertry assay; type: cell-based
[10] = biological target: T1, Histone deacetylase 1/2/3/6; experiment: Inhibition of HDAC1/2/3/6 in human Cal27CisR cells assessed as potentiation of cisplatin-induced apoptosis at 250 to 500 nM preincubated for 48 hrs followed by cisplatin addition by flow cytomertry assay; type: cell-based
CAL-27 [11] = experiment: Induction of apoptosis in human CAL27 cells at 250 to 500 nM incubated for 48 hrs by flow cytometry assay; type: cell-based; settings: cal-27, 48 h, 0.5 µM
[12] = Induction of apoptosis in human Cal27CisR cells at 250 to 500 nM incubated for 48 hrs by flow cytometry assay; type: cell-based; settings: 0.5 µM
[13] = biological target: T1, Histone deacetylase 1/2/3/6; experiment: Inhibition of HDAC1/2/3/6 in human Cal27CisR cells using Boc-Lys(epsilon-Ac)-AMC as substrate preincubated for 18 hrs followed by substrate addition measured after 3 hrs by fluorescence assay; type: cell-based
[14] = Cytotoxicity against human Cal27CisR cells assessed as cell survival after 72 hrs by MTT assay; type: functional, cell-based
[15] = biological target: T4, Protein deacetylase HDAC6 (Homo sapiens) (UniProt Q9UBN7); experiment: Inhibition of HDAC6 in human Cal27 cells assessed as increase in acetylation of alpha-tubulin at 10 uM after 24 hrs by Western blot method; type: cell-based
T4 sequence (whole entry): T2 sequence (Q9UBN7 whole entry)

[16] = biological target: T4, Protein deacetylase HDAC6 (Homo sapiens); experiment: Inhibition of HDAC6 in human Cal27CisR cells assessed as increase in acetylation of alpha-tubulin at 10 uM after 24 hrs by Western blot method; type: cell-based
[17] = biological target: T5, Histone deacetylase 1/2/3 (Homo sapiens) (UniProt Q13547+O15379+Q92769); experiment: Inhibition of HDAC1/2/3 in human Cal27CisR cells assessed as increase in acetylation of histone H3 at 10 uM after 24 hrs by Western blot method; type: cell-based
[18] = biological target: T5, Histone deacetylase 1/2/3 (Homo sapiens); experiment: Inhibition of HDAC1/2/3 in human Cal27 cells assessed as increase in acetylation of histone H3 at 10 uM after 24 hrs by Western blot method; type: cell-based
[19] = biological target: T1, Histone deacetylase 1/2/3/6; experiment: Inhibition of HDAC1/2/3/6 in human CAL27 cells assessed as potentiation of cisplatin-induced cytotoxicity preincubated for 48 hrs followed by cisplatin addition measured after 72 hrs by MTT assay relative to control; type: cell-based
[20] = biological target: T1, Histone deacetylase 1/2/3/6; experiment: Inhibition of HDAC1/2/3/6 in human Cal27CisR cells assessed as potentiation of cisplatin-induced cytotoxicity preincubated for 48 hrs followed by cisplatin addition measured after 72 hrs by MTT assay relative to control; type: cell-based

IC50 [1]: 480 nM
IC50 [2]: 320 nM
IC50 [3]: 270 nM
IC50 (Histone deacetylase 1): 25 nM
IC50 [5]: 281 nM
IC50 [6]: 6.5 nM
IC50 (Histone deacetylase 2): 66 nM
IC50 (Histone deacetylase 8): 2750 nM
Papp [7]: 8.2 ×10⁻⁶ cm/s and 20 ×10⁻⁶ cm/s
Papp ([8]; MDCK, read-out: Papp): 7.3 ×10⁻⁶ cm/s
Papp ([8]; mdck): 10.6 ×10⁻⁶ cm/s
inhibition [9]: Active
inhibition [10]: Active
IC50 [13]: 350 nM
inhibition [15]: Active
inhibition [16]: Active
inhibition [17]: Active
inhibition [18]: Active
Compound: CN(C)c1ccc(C(=O)N(CCCCCC(=O)NO)CC(=O)NCc2ccccc2)cc1
IC50 (A2780cisR): 1620 nM
IC50 (A2780): 470 nM
IC50 (CAL-27 [4]): 440 nM
Activity (CAL-27 [11]): Non-Toxic
Activity [12]: Non-Toxic
IC50 [14]: 1130 nM
inhibition [19]: Dose-dependent effect
inhibition [20]: Dose-dependent effect
